Experimental data taken from US7601745B2, “Heterocyclic NF-kB inhibitors” (4SC AG, priority 2004, dated 2009).

Each molecule was assayed on A549-NF-κB-SEAP reporter cells (assay: Inhibition of NF-κB-induced inflammation ([…] NINA Instant Assay, SEAP reporter)). Conditions: NF-κB inflammation assay.
Assay type: cell-based
Text: For the determination of anti-inflammatory activity of the compounds the […]® NINA Instant Assay from Cell Culture Service GmBH was used. This assay is based on recombinant A549-NF-κB-SEAP reporter cells preseeded in 96-well flat bottom plates. As the transfected reportergen for SEAP (secreted embryonic alkaline phosphatase) is under transcriptional control of a NF-κB-responsive element, the expression of this reporter is activated upon stimulation with TNF-α. SEAP secretion into the culture supernatant can be detected by the chemiluminescent substrate CSPD®. Test compounds that inhibit the NF-κB activation show reduced SEAP activity and reduced luminescent readout.
Following 18 h of reactivation at 37° C., 5% CO2 and 90% relative humidity, the cells were incubated with 0.01 up to 100 μM of test compound for 4.5 h before stimulation with 2 ng/ml TNF-α. After stimulation with TNF-α for 22 h endogenous phosphatases were inactivated and CSPD® substrate was supplied for 40 min. SEAP activity then was quantified by measuring luminescence as relative light units (RLU) using a Tecan Ultra reader. Each data point was recorded in quadruplicates and EC50 values were calculated via fitting function and the Microsoft Excel Solver.
For `N=C(NC(=O)c1csc(N2CCOCC2)n1)Nc1nc2ccccc2[nH]1` [compound 91], the “Biological activity (inhibition in the NF-κB inflammation assay)” value was “+ (“+” stands for 50-80% inhibition)”.

Same assay, conditions: compounds of formula (I); TNF-α stimulated reporter cells; test concentration not given
`O=C(c1csc(C2CCN(C(=O)c3ccccc3OC(F)(F)F)CC2)n1)N1CCN(c2nc3ccccc3n2Cc2ccc(F)cc2)CC1` [compound 98] was tested, and the “Biological activity (NF-κB inflammation assay, inhibition)” value was “+++ (“+++” stands for 90-100% inhibition)”. With `O=C(c1csc(C2CCN(Cc3ccncc3)CC2)n1)N1CCN(c2cccc(C(F)(F)F)c2)CC1` [compound 107] the “Biological activity (NF-κB inflammation assay, inhibition)” value was “+ (“+” stands for 50-80% inhibition)”. In the case of `O=C(c1csc(C2CCN(Cc3ccccc3OC(F)(F)F)CC2)n1)N1CCN(c2cccc(C(F)(F)F)c2)CC1` [compound 109], the “Biological activity (NF-κB inflammation assay, inhibition)” value is reported as “+ (“+” stands for 50-80% inhibition)”. For `O=C(c1csc(C2CCN(C(=O)c3ccccc3OC(F)(F)F)CC2)n1)N(Cc1ccc(Cl)cc1)Cc1ccc(Cl)cc1` [compound 110], the “Biological activity (NF-κB inflammation assay, inhibition)” value was “+ (“+” stands for 50-80% inhibition)”. For `O=C(c1csc(C2CCN(C(=O)c3ccccc3OC(F)(F)F)CC2)n1)N1CCC(n2nnc3ccccc32)CC1` [compound 111], the “Biological activity (NF-κB inflammation assay, inhibition)” value was “+ (“+” stands for 50-80% inhibition)”. In the case of `N#Cc1ccc(N2CCC(c3nc(C(=O)N4CCN(c5cccc(C(F)(F)F)c5)CC4)cs3)CC2)cc1` [compound 112], the “Biological activity (NF-κB inflammation assay, inhibition)” value is reported as “+ (“+” stands for 50-80% inhibition)”. `O=C(O)N1CCC(c2nc(C(=O)N3CCN(c4cccc(C(F)(F)F)c4)CC3)cs2)CC1` [compound 113] was tested, and the “Biological activity (NF-κB inflammation assay, inhibition)” value was “+ (“+” stands for 50-80% inhibition)”. With `O=C(c1csc(C2CCN(Cc3cccc(OC(F)(F)F)c3)CC2)n1)N1CCN(c2cccc(C(F)(F)F)c2)CC1` [compound 115] the “Biological activity (NF-κB inflammation assay, inhibition)” value was “++ (“++” means 80-90%)”. In the case of `CS(=O)(=O)c1ccc(N2CCC(c3nc(C(=O)N4CCN(c5cccc(C(F)(F)F)c5)CC4)cs3)CC2)cc1` [compound 117], the “Biological activity (NF-κB inflammation assay, inhibition)” value is reported as “+ (“+” stands for 50-80% inhibition)”. For `O=C(c1csc(C2CCN(c3cc(C(F)(F)F)ccn3)CC2)n1)N1CCN(c2cccc(C(F)(F)F)c2)CC1` [compound 118], the “Biological activity (NF-κB inflammation assay, inhibition)” value was “+ (“+” stands for 50-80% inhibition)”. With `O=C(c1csc(C2CCN(c3ccccc3)CC2)n1)N1CCN(c2cccc(C(F)(F)F)c2)CC1` [compound 119] the “Biological activity (NF-κB inflammation assay, inhibition)” value was “+ (“+” stands for 50-80% inhibition)”. `COc1nc(OC)nc(N2CCN(C(=O)c3csc(C4CCN(Cc5ccccc5)CC4)n3)CC2)n1` [compound 120] was tested, and the “Biological activity (NF-κB inflammation assay, inhibition)” value was “+ (“+” stands for 50-80% inhibition)”. For `COc1nc(OC)nc(N2CCN(C(=O)c3csc(C4CCN(Cc5ccc(Br)cc5)CC4)n3)CC2)n1` [compound 121], the “Biological activity (NF-κB inflammation assay, inhibition)” value was “+ (“+” stands for 50-80% inhibition)”. For `O=C(c1csc(C2CCN(c3ccccn3)CC2)n1)N1CCN(c2cccc(C(F)(F)F)c2)CC1` [compound 123], the “Biological activity (NF-κB inflammation assay, inhibition)” value was “++ (“++” means 80-90%)”. `CSc1nccc(N2CCN(C(=O)c3csc(C4CCN(C(=O)c5ccccc5OC(F)(F)F)CC4)n3)CC2)n1` [compound 124] was tested, and the “Biological activity (NF-κB inflammation assay, inhibition)” value was “+ (“+” stands for 50-80% inhibition)”. For `COc1nc(OC)nc(N2CCN(C(=O)c3csc(C4CCN(C(=O)Cc5ccc(F)cc5)CC4)n3)CC2)n1` [compound 126], the “Biological activity (NF-κB inflammation assay, inhibition)” value was “+ (“+” stands for 50-80% inhibition)”. With `COc1nc(OC)nc(N2CCN(C(=O)c3csc(C4CCN(C(=O)c5ccccc5OC(F)(F)F)CC4)n3)CC2)n1` [compound 127] the “Biological activity (NF-κB inflammation assay, inhibition)” value was “+ (“+” stands for 50-80% inhibition)”. In the case of `O=C(c1csc(C2CCN(C(=O)c3ccccc3OC(F)(F)F)CC2)n1)N1CCN(c2ncnc3nc[nH]c23)CC1` [compound 129], the “Biological activity (NF-κB inflammation assay, inhibition)” value is reported as “+ (“+” stands for 50-80% inhibition)”. In the case of `COc1cc(N2CCN(C(=O)c3csc(C4CCN(C(=O)c5ccccc5OC(F)(F)F)CC4)n3)CC2)nc(OC)n1` [compound 130], the “Biological activity (NF-κB inflammation assay, inhibition)” value is reported as “+ (“+” stands for 50-80% inhibition)”. In the case of `CC(c1cc2ccccc2[nH]1)N(C)C(=O)c1csc(C2CCN(C(=O)c3ccccc3OC(F)(F)F)CC2)n1` (stereo not shown) [compound 145], the “Biological activity (NF-κB inflammation assay, inhibition)” value is reported as “+ (“+” stands for 50-80% inhibition)”. `CN(C(=O)c1csc(C2CCN(C(=O)c3ccccc3OC(F)(F)F)CC2)n1)C(CN1CCOCC1)c1ccccc1` (stereo not shown) [compound 147] was tested, and the “Biological activity (NF-κB inflammation assay, inhibition)” value was “+ (“+” stands for 50-80% inhibition)”. For `O=C(c1csc(C2CCN(C(=O)c3ccccc3OC(F)(F)F)CC2)n1)N(CCO)Cc1ccccc1` [compound 148], the “Biological activity (NF-κB inflammation assay, inhibition)” value was “++ (“++” means 80-90%)”. For `O=C(c1csc(C2CCN(C(=O)c3ccccc3OC(F)(F)F)CC2)n1)N(CCc1ccccc1)Cc1ccccc1` [compound 149], the “Biological activity (NF-κB inflammation assay, inhibition)” value was “+ (“+” stands for 50-80% inhibition)”. With `O=C(c1csc(C2CCN(C(=O)c3ccccc3OC(F)(F)F)CC2)n1)N1CCN(c2cccc(Cl)c2)CC1` [compound 151] the “Biological activity (NF-κB inflammation assay, inhibition)” value was “+ (“+” stands for 50-80% inhibition)”. `COc1nc(OC)nc(N2CCN(C(=O)c3csc(C4CCNCC4)n3)CC2)n1` [compound 152] was tested, and the “Biological activity (NF-κB inflammation assay, inhibition)” value was “++ (“++” means 80-90%)”. In the case of `COc1ccc(N2CCC(c3nc(C(=O)N4CCN(c5cccc(C(F)(F)F)c5)CC4)cs3)CC2)c(OC)c1` [compound 153], the “Biological activity (NF-κB inflammation assay, inhibition)” value is reported as “+ (“+” stands for 50-80% inhibition)”. For `O=C(c1csc(C2CCN(c3ccc(OC(F)(F)F)cc3)CC2)n1)N1CCN(c2cccc(C(F)(F)F)c2)CC1` [compound 154], the “Biological activity (NF-κB inflammation assay, inhibition)” value was “+ (“+” stands for 50-80% inhibition)”. `O=C(c1csc(C2CCN(c3ccc(C(F)(F)F)cc3)CC2)n1)N1CCN(c2cccc(C(F)(F)F)c2)CC1` [compound 155] was tested, and the “Biological activity (NF-κB inflammation assay, inhibition)” value was “+ (“+” stands for 50-80% inhibition)”. `O=C(c1csc(C2CCN(c3ccc4c(c3)OCO4)CC2)n1)N1CCN(c2cccc(C(F)(F)F)c2)CC1` [compound 156] was tested, and the “Biological activity (NF-κB inflammation assay, inhibition)” value was “+ (“+” stands for 50-80% inhibition)”. `O=C(c1csc(C2CCN(c3ccc4c(c3)OCCO4)CC2)n1)N1CCN(c2cccc(C(F)(F)F)c2)CC1` [compound 157] was tested, and the “Biological activity (NF-κB inflammation assay, inhibition)” value was “+ (“+” stands for 50-80% inhibition)”.

Same assay, conditions: compounds of formula (II); TNF-α stimulated reporter cells; test concentration not given
`O=C(NCC1CCN(c2nc(C(=O)N3CCN(c4cccc(C(F)(F)F)c4)CC3)cs2)CC1)c1ccc(C(F)(F)F)c(F)c1` [compound 99] was tested, and the “Biological activity (NF-κB inflammation assay, inhibition)” value was “+ (“+” stands for 50-80% inhibition)”. For `O=C(CCC1CCCC1)NCC1CCN(c2nc(C(=O)N3CCN(c4cccc(C(F)(F)F)c4)CC3)cs2)CC1` [compound 100], the “Biological activity (NF-κB inflammation assay, inhibition)” value was “+ (“+” stands for 50-80% inhibition)”. With `O=C(NCC1CCN(c2nc(C(=O)N3CCN(c4cccc(C(F)(F)F)c4)CC3)cs2)CC1)c1ccccc1OC(F)(F)F` [compound 101] the “Biological activity (NF-κB inflammation assay, inhibition)” value was “+ (“+” stands for 50-80% inhibition)”. In the case of `N#Cc1ccc(C(=O)NCC2CCN(c3nc(C(=O)N4CCN(c5cccc(C(F)(F)F)c5)CC4)cs3)CC2)cc1` [compound 102], the “Biological activity (NF-κB inflammation assay, inhibition)” value is reported as “+ (“+” stands for 50-80% inhibition)”.

Same assay, conditions: compounds of formula (Ia); TNF-α stimulated reporter cells; test concentration not given
In the case of `O=C(NCCc1cccs1)N1CCC(c2nc(C(=O)N3CCN(c4cccc(C(F)(F)F)c4)CC3)cs2)CC1` [compound 77], the “Biological activity (NF-κB inflammation assay, inhibition)” value is reported as “+++ (“+++” stands for 90-100% inhibition)”. With `CC(C)NC(=O)N1CCC(c2nc(C(=O)N3CCN(c4cccc(C(F)(F)F)c4)CC3)cs2)CC1` [compound 78] the “Biological activity (NF-κB inflammation assay, inhibition)” value was “+ (“+” stands for 50-80% inhibition)”. `O=C(Nc1ccccc1OC(F)(F)F)N1CCC(c2nc(C(=O)N3CCN(c4cccc(C(F)(F)F)c4)CC3)cs2)CC1` [compound 79] was tested, and the “Biological activity (NF-κB inflammation assay, inhibition)” value was “+++ (“+++” stands for 90-100% inhibition)”. For `COc1cccc(NC(=O)N2CCC(c3nc(C(=O)N4CCN(c5cccc(C(F)(F)F)c5)CC4)cs3)CC2)c1` [compound 80], the “Biological activity (NF-κB inflammation assay, inhibition)” value was “+ (“+” stands for 50-80% inhibition)”. In the case of `COc1cc(NC(=O)N2CCC(c3nc(C(=O)N4CCN(c5cccc(C(F)(F)F)c5)CC4)cs3)CC2)cc(OC)c1OC` [compound 81], the “Biological activity (NF-κB inflammation assay, inhibition)” value is reported as “++ (“++” means 80-90%)”. `O=C(Nc1ccccc1)N1CCC(c2nc(C(=O)N3CCN(c4cccc(C(F)(F)F)c4)CC3)cs2)CC1` [compound 134] was tested, and the “Biological activity (NF-κB inflammation assay, inhibition)” value was “+ (“+” stands for 50-80% inhibition)”. `O=C(Nc1cccc(F)c1)N1CCC(c2nc(C(=O)N3CCN(c4cccc(C(F)(F)F)c4)CC3)cs2)CC1` [compound 142] was tested, and the “Biological activity (NF-κB inflammation assay, inhibition)” value was “++ (“++” means 80-90%)”. With `O=C(Nc1ccc(F)cc1)N1CCC(c2nc(C(=O)N3CCN(c4cccc(C(F)(F)F)c4)CC3)cs2)CC1` [compound 143] the “Biological activity (NF-κB inflammation assay, inhibition)” value was “+ (“+” stands for 50-80% inhibition)”.

Same assay, conditions: compounds of formula (Ib); TNF-α stimulated reporter cells; test concentration not given
With `Cc1sc(C2CCN(C(=O)c3ccccc3OC(F)(F)F)CC2)nc1CC(=O)N1CCN(c2cccc(C(F)(F)F)c2)CC1` [compound 103] the “Biological activity (NF-κB inflammation assay, inhibition)” value was “++ (“++” means 80-90%)”. With `Cc1sc(C2CCN(C(=O)c3ccccc3OC(F)(F)F)CC2)nc1CC(=O)N1CCN(c2cccc(Cl)c2)CC1` [compound 128] the “Biological activity (NF-κB inflammation assay, inhibition)” value was “+++ (“+++” stands for 90-100% inhibition)”.

Same assay, conditions: compounds of formula (Ic); TNF-α stimulated reporter cells; test concentration not given
In the case of `CNc1ccc(Cl)cc1C1c2ccccc2CCN1C(=O)c1csc(C2CCN(C(=O)c3ccccc3OC(F)(F)F)CC2)n1` (stereo not shown) [compound 150], the “Biological activity (NF-κB inflammation assay, inhibition)” value is reported as “++ (“++” means 80-90%)”.
